Legend:
Metformin = compound: CN(C)C(=N)NC(=N)N [Metformin]; experiment: relative viability (nuclei count vs DMSO), 5 days (fraction); higher = more cells survive
Procedure, shortened: (§1)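 Lung cancer cell lines received five library-drug doses (not always all listed) spaced by √10, pinned on vehicle-anchored 1536-well plates after an overnight stay at 37 °C. Five days later, with no medium change, nuclei were Hoechst-stained, imaged at 4× and counted with MetaXpress. Viability is treated-well nuclei relative to vehicle-well nuclei, as a median across plates. Passing plates had control CV below 25% and at least one doubling.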

Apatinib = compound: N#CC1(c2ccc(NC(=O)c3cccnc3NCc3ccncc3)cc2)CCCC1 [Apatinib]; experiment: as above
Procedure, shortened: as §1

Cell Line	relative viability (Metformin; 10 µM)	relative viability (Metformin; 31.62 µM)	relative viability (Metformin; 100 µM)	relative viability (Metformin; 316.23 µM)	relative viability (Metformin; 1000 µM)	relative viability (Apatinib; 0.08 µM)	relative viability (Apatinib; 0.253 µM)	relative viability (Apatinib; 0.8 µM)	relative viability (Apatinib; 2.53 µM)	relative viability (Apatinib; 8 µM)
COR-L23	0.979	1.06	0.974	0.977	1	1.04	0.942	1.05	0.914	0.865
NCI-H727	1.04	1.06	1.13	0.688	1.16	1.08	0.879	0.937	0.77	0.843
LXF-289	0.872	0.927	0.95	0.946	0.99	0.989	0.976	0.981	0.943	0.951
HCC-15		1.08	1	0.926	1.05	1.1	0.978	0.971	0.909	0.841
NCI-H2085	0.977	0.939	0.956	0.977	0.991	0.986	0.979	0.953	0.92	0.971
NCI-H1563	0.954	1.11	1.16	1.07	1.14	0.961	1.08	0.98	0.931	0.867
NCI-H1650	1.09	0.865	1.17	1.03	0.931	0.904	1.01	0.86	0.832	0.824
HCC-78	0.857	1.03	1.27	0.968	1.14	0.967	0.847	1.01	0.803	0.858
LCLC-97TM1	0.725	0.978	0.988	0.843	1.25	0.792	0.882	1.02	0.785	0.662
NCI-H441		0.761	0.985	0.667	0.944	1.08	1.05	0.837	0.864	0.743
NCI-H1651	1.08	1.17	1.12	1.11	1.11	0.988	0.984	0.986	0.939	0.871
NCI-H1944	0.845	1.1	0.954	0.882	1.04	0.948	0.921	0.886	0.791	0.921

Source: the supplement of paper PMC10307832
